# Literature values as cited in US6987099B2, “Uncomplexed cyclodextrin compositions for odor control” (The Procter & Gamble Company, priority 1997, dated 2006).
# Structures can show the parent of a compound that is named as a salt.
row,solubility in water,SMILES
1,about 0.46%,"O=[N+]([O-])C1(Br)COCOC1 [Bronidox L, 5-bromo-5-nitro-1,3-dioxane]"
2,about 4%,OCc1ccccc1 [benzyl alcohol]
3,about 1.8%,"[H]/N=C(\N/C(=N/[H])NCCCCCCNC(=N)NC(=N)Nc1ccc(Cl)cc1)Nc1ccc(Cl)cc1 [diacetate salt, 1,1′-hexamethylene bis(5-(p-chlorophenyl)biguanide), reference compound]"
4,about 0.8%,"CC(C)(O)C(Cl)(Cl)Cl [chlorobutanol, 1,1,1-Trichloro-2-methylpropan-2-ol]"
5,about 2%,OCCc1ccccc1 [2-phenylethanol]
6,about 70%,"[H]/N=C(\N/C(=N/[H])NCCCCCCNC(=N)NC(=N)Nc1ccc(Cl)cc1)Nc1ccc(Cl)cc1 [digluconate salt, 1,1′-hexamethylene bis(5-(p-chlorophenyl)biguanide), reference compound]"
7,more than 50%,"CC1(C)C(=O)N(CO)C(=O)N1CO [DMDM hydantoin, 1,3-bis(hydroxymethyl)-5,5-dimethyl-2,4-imidazolidinedione]"

row,SMILES,solubility in water
1,[Na+].[O-][n+]1ccccc1[S-] [sodium pyrithione],about 50%
2,OCCOc1ccccc1 [2-phenoxyethanol],about 2.67%
3,"ClC=CC[N+]12CN3CN(CN(C3)C1)C2.[Cl-] [Dowicil 200, 1-(3-Chlorallyl)-3,5,7-triaza-1-azoniaadamantane chloride]",freely soluble in water
